Data reported in patent US20210346394A1, “Remyelination Therapy” (The Regents of the University of California, priority 2016, published 2021).

Assays:
[1] = system: OPCs derived from WT P7 rat pups; test: Differentiation of isolated OPCs treated with SERMs (MBP/PDGFRα/DAPI immunostaining); assay type: cell-based; details: 500 nM for 48 hours
Procedure: Example 3. OPC Differentiation. To assess the effect of selected SERMs on myelination, OPCs were derived from WT P7 rat pups using previously validated methodology, cultured in isolation, and treated with a select group of SERMs at a preliminary concentration of 500 nM for 48 hours. Cells were then permeabilized and immunostained for MBP (oligodendrocytes), PDGFRα (OPCs), and DAPI (cell bodies).

[2] = system: demyelinated lesion in corpus callosum; test: Lysolecithin-induced demyelination of the corpus callosum; assay type: in vivo; details: mice, 10 mg/kg for 7 days after lysolecithin, 10 days post injection, vs vehicle
Procedure: Example 5. Effects of BZA on OPC Differentiation. Lysolecithin was injected in the corpus callosum of mice and analyzed at 6 days after injection, showing a demyelinated lesion area. Mice were treated with either BZA (10 mg/kg) or vehicle control for 7 days after injection of lysolecithin. Mice were euthanized at 10 days post injection and brains were sectioned and immunostained for myelin oligodendrocyte glycoprotein peptide (MOG), Adenomatous polyposis coli (APC-a maker of mature oligodendrocytes) and Olig2. Quantification of APC-positive cells indicated a 2-fold increase in remyelination in the corpus callosum after treatment with BZA, as depicted in FIG. 3.
Example 6. BZA effects on remyelination kinetics. Toxic, focal demyelinating injury was induced in the corpus callosum of 8-week old adult mice the rate and extent of remyelination was assessed, using previously described methodology. Demyelination was induced by injecting 1 μl of 1% solution of lysolecithin. Essential to this demyelinating model is the timeline for repair, comprising active demyelination [1-3 days post lesion (dpl)], OPC recruitment (3-7 dpl, peaking at 5 dpl), oligodendrocyte differentiation (7-10 dpl) and active remyelination (14-21 dpl). Oligodendrocyte differentiation and remyelination at 10 dpl was analyzed, allowing assessment of BZA effects on the kinetics of myelin repair. […]

| SMILES | OPC differentiation [1] | increase in remyelination (APC-positive cells) in the corpus callosum [2] [fold] |
| --- | --- | --- |
| N#CC(Cc1ccc(O)cc1)c1ccc(O)cc1 (stereo not drawn) [2,3-bis(4-hydroxyphenyl)-propionitrile] | significantly enhanced OPC differentiation |  |
| Cc1c(-c2ccc(O)cc2)n(Cc2ccc(OCCN3CCCCCC3)cc2)c2ccc(O)cc12 [BZA, bazedoxifene] |  | 2 |
| CC/C(=C(\c1ccccc1)c1ccc(OCCN(C)C)cc1)c1ccccc1 [tamoxifen] | significantly enhanced OPC differentiation |  |
